According to US10874743B2, “IRAK degraders and uses thereof” (Kymera Therapeutics, Inc., priority 2017, dated 2020):

Legend:
[1] = test system: OCI-LY10 cells; experiment: OCI-LY-10 CTG cell viability assay (EC50); type: cell-based; conditions: Homo sapiens, 96 h, CellTiter-Glo cell viability, 4 days incubation, top concentration 10 μM, read-out: OCI-LY10 IRAK4 EC50
Summary of the method: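 OCI-LY10 cells were exposed to a 9-dose, 1:3 series (top 10 μM, 0.2% DMSO) for 4 days at 37 °C. Viability was measured by CellTiter-Glo luminescence, and EC50 came from a three-parameter logistic fit.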

[2] = biological target: T1, IRAK4 (Homo sapiens, UniProt Q9NWZ3); experiment: OCI-LY-10 MSD assay for IRAK4 DC50; type: cell-based; parameters: endogenous in cells; host or cells: OCI-LY10; conditions: OCI-LY10 cells, 4 hr incubation, concentration required to degrade 50% of protein
T1 sequence (Q9NWZ3 1-460): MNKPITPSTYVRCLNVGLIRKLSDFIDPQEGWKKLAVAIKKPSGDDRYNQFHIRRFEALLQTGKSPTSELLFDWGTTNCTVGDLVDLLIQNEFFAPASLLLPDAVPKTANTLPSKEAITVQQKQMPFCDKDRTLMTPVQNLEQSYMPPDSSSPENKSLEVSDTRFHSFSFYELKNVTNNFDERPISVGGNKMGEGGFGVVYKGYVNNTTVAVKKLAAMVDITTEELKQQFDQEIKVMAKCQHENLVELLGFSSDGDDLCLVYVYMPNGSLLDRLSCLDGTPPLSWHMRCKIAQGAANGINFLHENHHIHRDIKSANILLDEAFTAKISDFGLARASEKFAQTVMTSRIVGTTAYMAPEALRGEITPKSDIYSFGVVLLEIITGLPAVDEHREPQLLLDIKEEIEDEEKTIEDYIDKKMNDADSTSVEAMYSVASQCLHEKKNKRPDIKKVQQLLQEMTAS
Summary of the method: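 IRAK4 level was quantified by MSD electrochemiluminescence (anti-IRAK4 capture antibody, rabbit anti-IRAK4 detection antibody) in RIPA lysates of OCI-Ly10 cells. Cells had been treated with compound for 4 hr (8-point, 3-fold serial dilution). Remaining protein versus concentration was fitted to a sigmoidal curve to give DC50.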

SMILES | EC50 [1] [nM] | DC50 [2] [nM]
Cn1c(=O)n(C2CCC(=O)NC2=O)c2ccc(CN3CCN(CCO[C@H]4C[C@H](NCc5ccc(-n6cc(NC(=O)c7coc(-c8ccnc(NCC9CC9)c8)n7)c(C(F)F)n6)cc5)C4)CC3)cc21 (stereo partly drawn) [I-583] | < 50 | < 50
O=C1CCC(N2C[C@H](c3cccc(C#CCN4CCO[C@@H](CNCc5ccc(-n6cc(NC(=O)c7coc(-c8ccnc(NCC9CC9)c8)n7)c(C(F)F)n6)cc5)C4)c3)OC2=O)C(=O)N1 (stereo partly drawn) [I-584] | 50 to 100 | < 50
O=C1CCC(N2C[C@H](c3ccc(C#CCN4CCO[C@@H](CNCc5ccc(-n6cc(NC(=O)c7coc(-c8ccnc(NCC9CC9)c8)n7)c(C(F)F)n6)cc5)C4)cc3)OC2=O)C(=O)N1 (stereo partly drawn) [I-585] | < 50 | < 50
Cn1c(=O)n(C2CCC(=O)NC2=O)c2cccc(CCCN3CCO[C@H](CNCc4ccc(-n5cc(NC(=O)c6coc(-c7ccnc(NCC8CC8)c7)n6)c(C(F)F)n5)cc4)C3)c21 (stereo partly drawn) [I-587] | < 50 | < 50
Cn1c(=O)n(C2CCC(=O)NC2=O)c2cccc(CCCN3CCO[C@@H](CNCc4ccc(-n5cc(NC(=O)c6coc(-c7ccnc(NCC8CC8)c7)n6)c(C(F)F)n5)cc4)C3)c21 (stereo partly drawn) [I-588] | < 50 | < 50
O=C1CCC(n2c(=O)oc3c(CCCN4CCO[C@@H](CNCc5ccc(-n6cc(NC(=O)c7coc(-c8ccnc(NCC9CC9)c8)n7)c(C(F)F)n6)cc5)C4)cccc32)C(=O)N1 (stereo partly drawn) [I-589] | < 50 | < 50
O=C1CCC(n2c(=O)oc3c(CCCN4CCO[C@H](CNCc5ccc(-n6cc(NC(=O)c7coc(-c8ccnc(NCC9CC9)c8)n7)c(C(F)F)n6)cc5)C4)cccc32)C(=O)N1 (stereo partly drawn) [I-590] | < 50 | < 50
CN(CC[C@H]1CN(CCCc2ccc3c(c2)n(C)c(=O)n3C2CCC(=O)NC2=O)CCO1)Cc1ccc(-n2cc(NC(=O)c3coc(-c4ccnc(NCC5CC5)c4)n3)c(C(F)F)n2)cc1 (stereo partly drawn) [I-592] | < 50 | < 50
Cn1c(=O)n(C2CCC(=O)NC2=O)c2cccc(CCCN3CCO[C@H](CNCc4ccc(-n5cc(NC(=O)c6coc(-c7ccnc(NCC(F)(F)F)c7)n6)c(C(N)=O)n5)cc4)C3)c21 (stereo partly drawn) [I-593] | 100 to 500 | < 50
CN(Cc1ccc(-n2cc(NC(=O)c3coc(-c4ccnc(NCC5CC5)c4)n3)c(C(F)F)n2)cc1)C[C@@H]1CN(CCCc2ccc3c(c2)n(C)c(=O)n3C2CCC(=O)NC2=O)CCO1 (stereo partly drawn) [I-599] | < 50 | 100 to 500
Cn1c(=O)n(C2CCC(=O)NC2=O)c2ccc(CCCN3CCO[C@@H](CNCc4ccc(-n5cc(NC(=O)c6coc(-c7ccnc(NCC(F)(F)F)c7)n6)c(C(F)F)n5)cc4)C3)cc21 (stereo partly drawn) [I-614] | 100 to 500 | 50 to 100
CN[C@@H](C)C(=O)N[C@H](C(=O)N1Cc2cc(OCCOCCOCCOCCOCCOCCNCc3ccc(-n4cc(NC(=O)c5coc(-c6ccnc(NCC7CC7)c6)n5)c(C(F)F)n4)cc3)ccc2C[C@H]1C(=O)N[C@@H]1CCCc2ccccc21)C(C)(C)C [I-680, 2-[2-(Cyclopropylmethylamino)-4-pyridyl]-N-[3-(difluoromethyl)-1-[4-[[2-[2-[2-[2-[2-[2-[[(3S)-2-[(2S)-3,3-dimethyl-2-[[(2S)-2-(methylamino)propanoyl]amino]butanoyl]-3-[[(1R)-tetralin-1-yl]carbamoyl]-3,4-dihydro-1H-isoquinolin-7-yl]oxy]ethoxy]ethoxy]ethoxy]ethoxy]ethoxy]ethylamino]methyl]-phenyl]pyrazol-4-yl]oxazole-4-carboxamide] | > 1000 | > 1000
CN[C@@H](C)C(=O)N[C@H](C(=O)N1Cc2cc(OCCOCCOCCOCCOCCNCc3nn(C)cc3NC(=O)c3coc(-c4ccnc(NCC(F)(F)F)c4)n3)ccc2C[C@H]1C(=O)N[C@@H]1CCCc2ccccc21)C(C)(C)C [I-682] | > 1000 | > 1000
Cn1c(=O)n(C2CCC(=O)NC2=O)c2ccc(CNCCOCCNCc3ccc(-n4cc(NC(=O)c5coc(-c6ccnc(NCC7CC7)c6)n5)c(C(F)F)n4)cc3)cc21 (stereo not drawn) [I-684, 2-[2-(cyclopropylmethylamino)-4-pyridyl]-N-[3-(difluoromethyl)-1-[4-[[2-[2-[[1-(2,6-dioxo-3-piperidyl)-3-methyl-2-oxo-benzimidazol-5-yl]methylamino]ethoxy]ethylamino]methyl]phenyl]pyrazol-4-yl]oxazole-4-carboxamide] | < 50 | < 50
Cn1c(=O)n(C2CCC(=O)NC2=O)c2ccc(N3CCN(CCOCCNCc4ccc(-n5cc(NC(=O)c6coc(-c7ccnc(NCC8CC8)c7)n6)c(C(F)F)n5)cc4)CC3)cc21 (stereo not drawn) [I-685] | < 50 | < 50
Cn1c(=O)n([C@@H]2CCC(=O)NC2=O)c2cccc(CCCOCCOCCNCc3ccc(-n4cc(NC(=O)c5coc(-c6ccnc(NCC(F)(F)F)c6)n5)c(C(N)=O)n4)cc3)c21 [I-689] | 500 to 1000 | < 50
Cn1c(=O)n([C@H]2CCC(=O)NC2=O)c2cccc(CCCOCCOCCNCc3ccc(-n4cc(NC(=O)c5coc(-c6ccnc(NCC(F)(F)F)c6)n5)c(C(N)=O)n4)cc3)c21 [I-690, N-[3-carbamoyl-1-[4-[[2-[2-[3-[(1S)-1-(2,6-dioxo-3-piperidyl)-3-methyl-2-oxo-benzimidazol-4-yl]propoxy]ethoxy]ethylamino]methyl]phenyl]pyrazol-4-yl]-2-[2-(2,2,2-trifluoroethylamino)-4-pyridyl]oxazole-4-carboxamide] | > 1000 | < 50
Cn1ncc2nc(Nc3cnn(CCOCCOCCNc4cccc5c4C(=O)N(C4CCC(=O)NC4=O)C5=O)c3)nc(NC3CCC(N4CCOCC4)CC3)c21 (stereo not drawn) [I-692] | > 1000 | > 1000
